Consider six compounds from patent publication US20250295683A1, “HETEROCYCLIC COMPOUND, PREPARATION METHOD THEREFOR AND APPLICATION THEREOF” (SICHUAN KELUN-BIOTECH BIOPHARMACEUTICAL CO., LTD., priority 2022, published 2025).

Bounds are passed on as bounds.

Data set [1] deals with T1, Plasminogen (Glu-Typ) (Homo sapiens, UniProt P00747).
T1 construct: Plasminogen (Glu-Typ) (sigma); purchased sigma (plasminogen); Aladdin (u-PA)
The experiment in a line: Activation effect of the compounds on plasminogen (Glu-Typ), u-PA / VLK-pNA kinetic assay. The data set is classed as biochemical. The following applies: for Activation multiples (5 min): slope of A405 vs t^2 divided by slope of control group; for Activation potency on plasminogen compared with the positive compound: at the same concentration. The protocol: (1) Formulation of Compounds The test compounds of the present invention and the positive compound are all set at three concentration points, i.e., 200 μM, 150 μM and 100 μM, respectively; the final concentration in DMSO was 2.5%.
Plasminogen (Glu-Typ) (sigma); urokinase-type plasminogen activator (u-PA) (Aladdin); vLK-pNA (absin); Multifunctional microplate reader (Thermo).
Plasminogen, the urokinase-type Plasminogen activator (u-PA) and VLK-pNA were formulated in a buffer [Tris-HCl (50 mM, pH 7.4)+NaCl (100 mM)+Tween-80 (0.01%)] to obtain mother solutions at concentrations of 100 nM (5×), 100 IU/ml (5×), and 5 mM (5×), respectively. 20 μl of 5× Plasminogen (Glu-Typ), 20 μl of 5× urokinase-type Plasminogen activator (u-PA) and 20 μl of 5×VLK-pNA were added to a 96-well plate. After mixing uniformly, 40 μl of the test compounds or positive compound were added to the 96-well plate, and a control group (no compound) was set up. The mixture was uniformly mixed well. The kinetic detection was performed using a Thermo multifunctional microplate reader, the detection wavelength was 405 nm, and the activation factor was calculated.
The following results were obtained by plotting the absorbance value at 405 nm (A405) versus time squared (t^2), using the slope of the curve for analysis, and calculating the activation multiples by dividing the slope of the compound group by the slope of the control group (see Table 1-1 and Table 1-2).

Data set [2] has as its system whole blood of rat. The experiment in a line: Fibrinolysis effect shown by thromboelastography (TEG) with u-PA. The following applies: for Ma (strength of the blood clot formed): rat whole blood; for Thrombolytic activity compared with the positive compound: according to the Ma values and thromboelastograms. The protocol: Main Instruments and Reagents: thromboelastography TEG (Udibio); urokinase-type plasminogen activator (u-PA) (Aladdin); reagent 1 (the main component is kaolin); reagent 2 (main component is calcium chloride).
• (1) Test group setting: uPA group: urokinase-type plasminogen activator (u-PA) (1000 U/ml); positive compound/compound 2-1/compound 2-2 group: test compound (200 μM)+u-PA (1000 U/ml); blank group: vehicle. • (2) Formulation of compound solution: the compound was formulated using a 0.5 mg/ml trometamol solution to obtain a 4 mM mother solution, adjusted to pH 9, and diluted to a 2 mM 10× mother solution. The final test concentration was 200 μM. u-PA was formulated as a 50,000 U/ml mother solution using normal saline, and diluted to a 10,000 U/ml 10× mother solution. The final test concentration was 1000 U/ml. • (3) Test: 100 μL of u-PA was added to a sample cup (containing reagent 1) containing 800 μL of the whole blood of rat (anticoagulated with sodium citrate), 100 μL of the test compound was added, and the cup was inverted to mix well. 340 μL of the sample from the sample cup was added to the reaction cup containing 20 μL of reagent 2, and the instrument was allowed to run. The results are shown in Table 2-1, Table 2-2, Table 2-3, FIG. 1, FIG. 2 and FIG. 3. The compound concentration as shown in Table 2-1, Table 2-2, FIG. 1 and FIG. 2 was 200 μM; and the compound concentration as shown in Table 2-3 and FIG. 3 was 100 μM.

For data set [3] the following is noted: in vivo; cited from earlier work.
The conditions of data set [4]: stroke resulting from acute occlusion of large vessels; cited from earlier work.
[5] abbreviates: Table 2-1, compound 200 μM + u-PA 1000 U/ml.
The mark [6] stands for this setting: Table 2-2, compound 200 μM + u-PA 1000 U/ml.
The mark [7] stands for this setting: Table 2-3, compound 100 μM + u-PA 1000 U/ml.

T1 sequence (P00747 20-810 limits assumed): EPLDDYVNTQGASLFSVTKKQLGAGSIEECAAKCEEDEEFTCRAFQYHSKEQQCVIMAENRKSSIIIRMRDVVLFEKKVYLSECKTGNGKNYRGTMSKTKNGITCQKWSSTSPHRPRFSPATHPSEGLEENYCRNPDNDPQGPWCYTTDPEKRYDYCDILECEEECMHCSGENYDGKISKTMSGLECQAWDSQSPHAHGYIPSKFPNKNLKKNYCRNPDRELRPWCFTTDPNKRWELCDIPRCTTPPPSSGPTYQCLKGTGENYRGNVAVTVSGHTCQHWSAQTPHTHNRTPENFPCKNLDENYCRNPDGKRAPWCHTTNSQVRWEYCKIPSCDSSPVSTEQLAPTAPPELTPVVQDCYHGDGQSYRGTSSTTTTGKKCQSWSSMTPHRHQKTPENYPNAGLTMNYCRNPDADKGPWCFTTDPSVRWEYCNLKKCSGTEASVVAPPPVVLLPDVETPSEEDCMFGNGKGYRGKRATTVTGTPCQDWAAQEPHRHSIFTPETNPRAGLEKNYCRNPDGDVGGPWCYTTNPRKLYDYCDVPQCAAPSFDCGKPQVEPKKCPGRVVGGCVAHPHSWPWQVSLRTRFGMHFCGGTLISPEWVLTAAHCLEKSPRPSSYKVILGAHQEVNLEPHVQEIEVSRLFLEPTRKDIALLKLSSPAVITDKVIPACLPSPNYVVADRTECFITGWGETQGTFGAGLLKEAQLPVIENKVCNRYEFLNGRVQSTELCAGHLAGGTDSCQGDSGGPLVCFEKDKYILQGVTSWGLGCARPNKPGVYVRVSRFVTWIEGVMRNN

Turning to `CC(C)=CCC/C(C)=C/CC[C@@]1(C)Oc2c(c(OC(=O)N(C)C)cc3c2CN(CCC[C@@H](C(=O)O)N2Cc4c(cc(OC(=O)N(C)C)c5c4O[C@](C)(CC/C=C(\C)CCC=C(C)C)[C@@H](O)C5)C2=O)C3=O)C[C@@H]1O` [Compound 2-1, (S)-2,5-bis((2R,3S)-5-((dimethylcarbamoyl)oxy)-2-((E)-4,8-dimethylnona-3,7-dien-1-yl)-3-hydroxy-2-methyl-7-oxo-3,4,7,9-tetrahydropyrano[2,3-E]isoindol-8(2H)-yl)pentanoic acid], the “Activation multiples (5 min)” value is given as 5.22 in data set [1] (Table 1-1, compound 100 μM); 15.93 in data set [1] (Table 1-1, compound 150 μM); 42.97 in data set [1] (Table 1-1, compound 200 μM). The “Activation potency on plasminogen compared with the positive compound” value in data set [1] is reported as “better activation potency on plasminogen than the positive compounds”. For the same compound, the “Ma (strength of the blood clot formed)” value in data set [2] (setting [5]) came to 4.7 mm. Besides, the “Thrombolytic activity compared with the positive compound” value in data set [2] is on record as “superior thrombolytic activity to the positive compound”.
Take `CC(C)=CCC/C(C)=C/CC[C@@]1(C)Oc2c(c(OC(=O)N3CCOCC3)cc3c2CN(CCC[C@@H](C(=O)O)N2Cc4c(cc(OC(=O)N5CCOCC5)c5c4O[C@](C)(CC/C=C(\C)CCC=C(C)C)[C@@H](O)C5)C2=O)C3=O)C[C@@H]1O` [Compound 2-2, (S)-2,5-bis((2R,3S)-2-((E)-4,8-dimethylnona-3,7-dien-1-yl)-3-hydroxy-2-methyl-5-((morpholino-4-carbonyl)oxy)-7-oxo-3,4,7,9-tetrahydropyrano[2,3-e]isoindol-8(2H)-yl)pentanoi c acid]: the “Activation multiples (5 min)” value turned out to be 6.66 in data set [1] (Table 1-1, compound 100 μM); 21.12 in data set [1] (Table 1-1, compound 150 μM); 42.23 in data set [1] (Table 1-1, compound 200 μM). Also, the “Activation potency on plasminogen compared with the positive compound” value in data set [1] is reported as “better activation potency on plasminogen than the positive compounds”. In addition, the “Ma (strength of the blood clot formed)” value in data set [2] (setting [5]) was determined as 4.7 mm. The “Thrombolytic activity compared with the positive compound” value in data set [2] is “superior thrombolytic activity to the positive compound”.
Take `CC(C)=CCC/C(C)=C/CC[C@@]1(C)Oc2c(c(OC(=O)N3CCS(=O)(=O)CC3)cc3c2CN(CCC[C@@H](C(=O)O)N2Cc4c(cc(OC(=O)N5CCS(=O)(=O)CC5)c5c4O[C@](C)(CC/C=C(\C)CCC=C(C)C)[C@@H](O)C5)C2=O)C3=O)C[C@@H]1O` [Compound 2-5, (S)-2,5-bis((2R,3S)-2-((E)-4,8-dimethylnona-3,7-dien-1-yl)-5-((1,1-dioxothiomorpholino-4-carbonyl)oxy)-3-hydroxy-2-methyl-7-oxo-3,4,7,9-tetrahydropyrano[2,3-E]isoindol-8(2H)-yl)pentanoic acid]: the “Activation multiples (5 min)” value is given as 4.65 in data set [1] (Table 1-2, compound 100 μM); 52.96 in data set [1] (Table 1-2, compound 150 μM); 90.00 in data set [1] (Table 1-2, compound 200 μM). The “Activation potency on plasminogen compared with the positive compound” value in data set [1] was “better activation potency on plasminogen than the positive compounds”. For the same compound, the “Ma (strength of the blood clot formed)” value in data set [2] (setting [6]) is 1.9 mm. In addition, in data set [2], the “Thrombolytic activity compared with the positive compound” value is reported as “superior thrombolytic activity to the positive compound”.
Regarding `CC(C)=CCC/C(C)=C/CC[C@@]1(C)Oc2c(c(OC(=O)N3CC[S+]([O-])CC3)cc3c2CN(CCC[C@@H](C(=O)O)N2Cc4c(cc(OC(=O)N5CC[S+]([O-])CC5)c5c4O[C@](C)(CC/C=C(\C)CCC=C(C)C)[C@@H](O)C5)C2=O)C3=O)C[C@@H]1O` [Compound 2-6, (S)-2,5-bis((2R,3S)-2-((E)-4,8-dimethylnona-3,7-dien-1-yl)-5-((1-oxothiomorpholino-4-carbonyl)oxy)-3-hydroxy-2-methyl-7-oxo-3,4,7,9-tetrahydropyrano[2,3-E]isoindol-8(2H)-yl)pentanoic acid], the “Ma (strength of the blood clot formed)” value in data set [2] (setting [7]) worked out at 8.8 mm. Further, in data set [2], the “Thrombolytic activity compared with the positive compound” value is listed as “superior thrombolytic activity to the positive compound”.
Turning to `CC(C)=CCC/C(C)=C/CC[C@@]1(C)Oc2c(c(O)cc3c2CN(CCC[C@@H](C(=O)O)N2Cc4c(cc(O)c5c4O[C@](C)(CC/C=C(\C)CCC=C(C)C)[C@@H](O)C5)C2=O)C3=O)C[C@@H]1O` [Positive compound, reference compound], the “Activation multiples (5 min)” value in data set [1] (Table 1-1, compound 100 μM) stood at 1.71; in data set [1] (Table 1-1, compound 150 μM), 2.62; in data set [1] (Table 1-1, compound 200 μM), 8.62; in data set [1] (Table 1-2, compound 100 μM), 3.02; in data set [1] (Table 1-2, compound 150 μM), 4.54; in data set [1] (Table 1-2, compound 200 μM) it was 12.49. Moreover, the “Ma (strength of the blood clot formed)” value is given as 72.9 mm in data set [2] (setting [5]), 73.1 mm in data set [2] (setting [6]) and 76.4 mm in data set [2] (setting [7]).
The half-life is the time in which the quantity being followed falls by half. Consider “rt-PA: Recombinant tissue plasminogen activator”, for which, in data set [3], the half-life is 3 to 5 min. For the same compound, the “recanalization rate after intravenous thrombolysis” value in data set [4] is at most 25%.
